Laboratory results published in patent US20260102495A1, “METHOD FOR PRODUCING ONE OR SEVERAL SHARED CANCER EPITOPE(S) DERIVED FROM ALTERNATIVE TRANSLATIONAL CONTROL” (CENTRE LEON BERARD, priority 2022, published 2026).
No end group written: not given here.

What was measured:
CD8+ naive T cells = test: PBMCs priming assay on HLA-A*02:01 healthy donors with dextramer analysis; format: cell-based, human
[1] = tested on: HLA-A2+ normal human primary cells
From the text: After elution, dissociation, filtration, and cleanup, peptides were lyophilized before further analysis. Transition parameters for each epitope peptide were examined and curated through Valid-NEO method builder bioinformatic pipeline to exclude ions with excessive noise due to coelution with impurities and to boost up the detectability through recursive optimizations of significant ions.

| presentation of epitope at the cell surface (MS transitions) [1] | Sequence | donors in which priming of peptide specific CD8+ T cells was identified (CD8+ naive T cells; 12 different donors, FIG. 2B) [donors] | dextramer positive CD8+ T cells (CD8+ naive T cells; after 12 days priming with peptide pulsed MoDCs, FIG. 2A) [%] |
| --- | --- | --- | --- |
| – | SLTDLYLRI [PR5] | 2 | 0.068 |
| not presented by normal cells | LLLEATANL [PR3] | – | – |
